Measurements as given in ChEMBL document CHEMBL5120845, “Design and synthesis of novel macrolones bridged with linkers from 11,12-positions of macrolides” (Bioorg Med Chem Lett, 2022).
Converted amounts (≈) assume the structure as drawn.

Tests used:
Type in all cases: functional
Streptococcus pneumoniae [1] = experiment: Antibacterial activity against Streptococcus pneumoniae ATCC 49619 by microbroth dilution method
Streptococcus pneumoniae [2] = experiment: Antibacterial activity against Streptococcus pneumoniae 07P390 by microbroth dilution method
Streptococcus pneumoniae [3] = experiment: Antibacterial activity against Streptococcus pneumoniae PU09 by microbroth dilution method
Streptococcus pyogenes = experiment: Antibacterial activity against Streptococcus pyogenes 12-206 by microbroth dilution method
Staphylococcus aureus [4] = experiment: Antibacterial activity against Staphylococcus aureus 15B196 by microbroth dilution method
Staphylococcus aureus [5] = experiment: Antibacterial activity against Staphylococcus aureus PU32 by microbroth dilution method
Haemophilus influenzae = experiment: Antibacterial activity against Haemophilus influenzae ATCC 49247 by microbroth dilution method

Row | Compound | MIC (Streptococcus pneumoniae [1]) | MIC (Streptococcus pneumoniae [2]) | MIC (Streptococcus pneumoniae [3]) | MIC (Streptococcus pyogenes) | MIC (Staphylococcus aureus [4]) | MIC (Staphylococcus aureus [5]) | MIC (Haemophilus influenzae)
1 | CC[C@H]1OC(=O)[C@H](C)C(=O)[C@H](C)[C@@H](O[C@@H]2O[C@H](C)C[C@H](N(C)C)[C@H]2O)[C@](C)(OC)C[C@@H](C)C(=O)[C@H](C)[C@H]2N(CCC#Cc3ccc4c(c3)c(=O)c(C(N)=O)cn4C3CC3)C(=O)O[C@]12C | ≤ 0.008 µg/mL | 8 µg/mL (≈ 8.98 µM) | 1 µg/mL (≈ 1.12 µM) | 1 µg/mL (≈ 1.12 µM) | 32 µg/mL (≈ 35.9 µM) | 1 µg/mL (≈ 1.12 µM) | 16 µg/mL (≈ 18 µM)
2 | CC[C@H]1OC(=O)[C@H](C)C(=O)[C@H](C)[C@@H](O[C@@H]2O[C@H](C)C[C@H](N(C)C)[C@H]2O)[C@](C)(OC)C[C@@H](C)C(=O)[C@H](C)[C@H]2N(CCCCc3ccc4c(=O)c(C(N)=O)cn(C5CC5)c4c3)C(=O)O[C@]12C | 0.03 µg/mL (≈ 0.0335 µM) | 32 µg/mL (≈ 35.8 µM) | 0.25 µg/mL (≈ 0.279 µM) | 4 µg/mL (≈ 4.47 µM) | 512 µg/mL (≈ 572 µM) | 1 µg/mL (≈ 1.12 µM) | 32 µg/mL (≈ 35.8 µM)
3 | CC[C@H]1OC(=O)[C@H](C)C(=O)[C@H](C)[C@@H](O[C@@H]2O[C@H](C)C[C@H](N(C)C)[C@H]2O)[C@](C)(OC)C[C@@H](C)C(=O)[C@H](C)[C@H]2N(CCCCCC#Cc3ccc4c(c3)c(=O)c(C(=O)O)cn4C3CC3)C(=O)O[C@]12C | ≤ 0.008 µg/mL | 32 µg/mL (≈ 34.3 µM) | 1 µg/mL (≈ 1.07 µM) | 2 µg/mL (≈ 2.14 µM) | 128 µg/mL (≈ 137 µM) | 8 µg/mL (≈ 8.56 µM) | 32 µg/mL (≈ 34.3 µM)
4 | CC[C@H]1OC(=O)[C@H](C)C(=O)[C@H](C)[C@@H](O[C@@H]2O[C@H](C)C[C@H](N(C)C)[C@H]2O)[C@](C)(OC)C[C@@H](C)C(=O)[C@H](C)[C@H]2N(CCCC#Cc3ccc4c(=O)c(C(=O)O)cn(C5CC5)c4c3)C(=O)O[C@]12C | 0.03 µg/mL (≈ 0.0331 µM) | 2 µg/mL (≈ 2.21 µM) | 1 µg/mL (≈ 1.1 µM) | 2 µg/mL (≈ 2.21 µM) | 256 µg/mL (≈ 283 µM) | 4 µg/mL (≈ 4.41 µM) | 32 µg/mL (≈ 35.3 µM)
5 | CC[C@H]1OC(=O)[C@H](C)C(=O)[C@H](C)[C@@H](O[C@@H]2O[C@H](C)C[C@H](N(C)C)[C@H]2O)[C@](C)(OC)C[C@@H](C)C(=O)[C@H](C)[C@H]2N(CC/C=C\c3ccc4c(c3)c(=O)c(C(=O)O)cn4C3CC3)C(=O)O[C@]12C | ≤ 0.008 µg/mL | 32 µg/mL (≈ 35.8 µM) | 1 µg/mL (≈ 1.12 µM) | 2 µg/mL (≈ 2.24 µM) | 256 µg/mL (≈ 286 µM) | 0.5 µg/mL (≈ 0.559 µM) | 8 µg/mL (≈ 8.95 µM)
6 | CC[C@H]1OC(=O)[C@H](C)C(=O)[C@H](C)[C@@H](O[C@@H]2O[C@H](C)C[C@H](N(C)C)[C@H]2O)[C@](C)(OC)C[C@@H](C)C(=O)[C@H](C)[C@H]2N(CCCCCC#Cc3ccc4c(=O)c(C(=O)O)cn(C5CC5)c4c3)C(=O)O[C@]12C | ≤ 0.008 µg/mL | 16 µg/mL (≈ 17.1 µM) | 1 µg/mL (≈ 1.07 µM) | 2 µg/mL (≈ 2.14 µM) | 128 µg/mL (≈ 137 µM) | 4 µg/mL (≈ 4.28 µM) | 16 µg/mL (≈ 17.1 µM)
7 | CC[C@H]1OC(=O)[C@H](C)C(=O)[C@H](C)[C@@H](O[C@@H]2O[C@H](C)C[C@H](N(C)C)[C@H]2O)[C@](C)(OC)C[C@@H](C)C(=O)[C@H](C)[C@H]2N(CCN3CCN(c4cc5c(cc4F)c(=O)c(C(=O)O)cn5C4CC4)CC3)C(=O)O[C@]12C | 0.03 µg/mL (≈ 0.0309 µM) | 2 µg/mL (≈ 2.06 µM) | 2 µg/mL (≈ 2.06 µM) | 1 µg/mL (≈ 1.03 µM) | 256 µg/mL (≈ 264 µM) | 4 µg/mL (≈ 4.12 µM) | 32 µg/mL (≈ 33 µM)
8 | CC[C@H]1OC(=O)[C@H](C)C(=O)[C@H](C)[C@@H](O[C@@H]2O[C@H](C)C[C@H](N(C)C)[C@H]2O)[C@](C)(OC)C[C@@H](C)C(=O)[C@H](C)[C@H]2N(CCCCCC#Cc3ccc4c(c3)c(=O)c(C(N)=O)cn4C3CC3)C(=O)O[C@]12C | 0.016 µg/mL (≈ 0.0171 µM) | 4 µg/mL (≈ 4.29 µM) | 1 µg/mL (≈ 1.07 µM) | 2 µg/mL (≈ 2.14 µM) | 128 µg/mL (≈ 137 µM) | 8 µg/mL (≈ 8.57 µM) | 64 µg/mL (≈ 68.6 µM)
9 | CC[C@H]1OC(=O)[C@H](C)C(=O)[C@H](C)[C@@H](O[C@@H]2O[C@H](C)C[C@H](N(C)C)[C@H]2O)[C@](C)(OC)C[C@@H](C)C(=O)[C@H](C)[C@H]2N(CCCCCCC#Cc3ccc4c(=O)c(C(=O)O)cn(C5CC5)c4c3)C(=O)O[C@]12C | ≤ 0.008 µg/mL | 8 µg/mL (≈ 8.44 µM) | 1 µg/mL (≈ 1.05 µM) | 1 µg/mL (≈ 1.05 µM) | 32 µg/mL (≈ 33.7 µM) | 4 µg/mL (≈ 4.22 µM) | 16 µg/mL (≈ 16.9 µM)
10 | CC[C@H]1OC(=O)[C@H](C)C(=O)[C@H](C)[C@@H](O[C@@H]2O[C@H](C)C[C@H](N(C)C)[C@H]2O)[C@](C)(OC)C[C@@H](C)C(=O)[C@H](C)[C@H]2N(CCCCC#Cc3ccc4c(=O)c(C(=O)O)cn(C5CC5)c4c3)C(=O)O[C@]12C | 0.016 µg/mL (≈ 0.0174 µM) | 8 µg/mL (≈ 8.69 µM) | 2 µg/mL (≈ 2.17 µM) | 2 µg/mL (≈ 2.17 µM) | 256 µg/mL (≈ 278 µM) | 2 µg/mL (≈ 2.17 µM) | 32 µg/mL (≈ 34.8 µM)
11 | CC[C@H]1OC(=O)[C@H](C)C(=O)[C@H](C)[C@@H](O[C@@H]2O[C@H](C)C[C@H](N(C)C)[C@H]2O)[C@](C)(OC)C[C@@H](C)C(=O)[C@H](C)[C@H]2N(CCC#Cc3ccc4c(c3)c(=O)c(C(=O)O)cn4C3CC3)C(=O)O[C@]12C | 0.06 µg/mL (≈ 0.0673 µM) | 256 µg/mL (≈ 287 µM) | 1 µg/mL (≈ 1.12 µM) | 4 µg/mL (≈ 4.48 µM) | 512 µg/mL (≈ 574 µM) | 2 µg/mL (≈ 2.24 µM) | 32 µg/mL (≈ 35.9 µM)
12 | CC[C@H]1OC(=O)[C@H](C)C(=O)[C@H](C)[C@@H](O[C@@H]2O[C@H](C)C[C@H](N(C)C)[C@H]2O)[C@](C)(OC)C[C@@H](C)C(=O)[C@H](C)[C@H]2N(CCCC#Cc3ccc4c(c3)c(=O)c(C(=O)O)cn4C3CC3)C(=O)O[C@]12C | 0.03 µg/mL (≈ 0.0331 µM) | 128 µg/mL (≈ 141 µM) | 1 µg/mL (≈ 1.1 µM) | 2 µg/mL (≈ 2.21 µM) | 256 µg/mL (≈ 283 µM) | 4 µg/mL (≈ 4.41 µM) | 8 µg/mL (≈ 8.83 µM)
13 | CC[C@H]1OC(=O)[C@H](C)C(=O)[C@H](C)[C@@H](O[C@@H]2O[C@H](C)C[C@H](N(C)C)[C@H]2O)[C@](C)(OC)C[C@@H](C)C(=O)[C@H](C)[C@H]2N(CCCC#Cc3ccc4c(=O)c(C(N)=O)cn(C5CC5)c4c3)C(=O)O[C@]12C | 0.03 µg/mL (≈ 0.0331 µM) | 128 µg/mL (≈ 141 µM) | 2 µg/mL (≈ 2.21 µM) | 4 µg/mL (≈ 4.42 µM) | 512 µg/mL (≈ 566 µM) | 4 µg/mL (≈ 4.42 µM) | 128 µg/mL (≈ 141 µM)
14 | CC[C@H]1OC(=O)[C@H](C)C(=O)[C@H](C)[C@@H](O[C@@H]2O[C@H](C)C[C@H](N(C)C)[C@H]2O)[C@](C)(OC)C[C@@H](C)C(=O)[C@H](C)[C@H]2N(CCC#Cc3ccc4c(=O)c(C(N)=O)cn(C5CC5)c4c3)C(=O)O[C@]12C | 0.06 µg/mL (≈ 0.0673 µM) | 128 µg/mL (≈ 144 µM) | 0.12 µg/mL (≈ 0.135 µM) | 32 µg/mL (≈ 35.9 µM) | 512 µg/mL (≈ 575 µM) | 1 µg/mL (≈ 1.12 µM) | 128 µg/mL (≈ 144 µM)
15 | CC[C@H]1OC(=O)[C@H](C)C(=O)[C@H](C)[C@@H](O[C@@H]2O[C@H](C)C[C@H](N(C)C)[C@H]2O)[C@](C)(OC)C[C@@H](C)C(=O)[C@H](C)[C@H]2N(CCCCc3ccc4c(c3)c(=O)c(C(=O)O)cn4C3CC3)C(=O)O[C@]12C | 0.06 µg/mL (≈ 0.067 µM) | 64 µg/mL (≈ 71.4 µM) | 4 µg/mL (≈ 4.46 µM) | 2 µg/mL (≈ 2.23 µM) | 512 µg/mL (≈ 571 µM) | 1 µg/mL (≈ 1.12 µM) | 32 µg/mL (≈ 35.7 µM)
16 | CC[C@H]1OC(=O)[C@H](C)C(=O)[C@H](C)[C@@H](O[C@@H]2O[C@H](C)C[C@H](N(C)C)[C@H]2O)[C@](C)(OC)C[C@@H](C)C(=O)[C@H](C)[C@H]2N(CCC#Cc3ccc4c(=O)c(C(=O)O)cn(C5CC5)c4c3)C(=O)O[C@]12C | 0.016 µg/mL (≈ 0.0179 µM) | 2 µg/mL (≈ 2.24 µM) | 0.5 µg/mL (≈ 0.561 µM) | 1 µg/mL (≈ 1.12 µM) | 16 µg/mL (≈ 17.9 µM) | 0.25 µg/mL (≈ 0.28 µM) | 4 µg/mL (≈ 4.48 µM)
17 | CC[C@H]1OC(=O)[C@H](C)C(=O)[C@H](C)[C@@H](O[C@@H]2O[C@H](C)C[C@H](N(C)C)[C@H]2O)[C@](C)(OC)C[C@@H](C)C(=O)[C@H](C)[C@H]2N(CCCCCCC#Cc3ccc4c(c3)c(=O)c(C(=O)O)cn4C3CC3)C(=O)O[C@]12C | ≤ 0.008 µg/mL | 16 µg/mL (≈ 16.9 µM) | 1 µg/mL (≈ 1.05 µM) | 1 µg/mL (≈ 1.05 µM) | 128 µg/mL (≈ 135 µM) | 4 µg/mL (≈ 4.22 µM) | 4 µg/mL (≈ 4.22 µM)
18 | CC[C@H]1OC(=O)[C@H](C)C(=O)[C@H](C)[C@@H](O[C@@H]2O[C@H](C)C[C@H](N(C)C)[C@H]2O)[C@](C)(OC)C[C@@H](C)C(=O)[C@H](C)[C@H]2N(CCCCC#Cc3ccc4c(c3)c(=O)c(C(=O)O)cn4C3CC3)C(=O)O[C@]12C | 0.016 µg/mL (≈ 0.0174 µM) | 128 µg/mL (≈ 139 µM) | 1 µg/mL (≈ 1.09 µM) | 4 µg/mL (≈ 4.35 µM) | 256 µg/mL (≈ 278 µM) | 2 µg/mL (≈ 2.17 µM) | 32 µg/mL (≈ 34.8 µM)
